SMILES strings stand for the structures.

The data set in a line: Stability of Latanoprost in PEA III formulations and compatibility with film casting, evaluated by 1H NMR. It is filed as physicochemical. The procedure:
For film casting, solutions were prepared in a suitable solvent resulting in solutions with viscosities low enough for solvent casting. Exact amounts of PEA-III ac Bz and API (Active Pharmaceutical Ingredient) were weighed and dissolved with a suitable solvent. The API payload is determined over the polymer weight. API payload of 10% was used. The API/polymer/solvent formulations were poured into petri dishes (4 cm diameter) and covered to reduce evaporation rates of the solvent and prevent formation of air bubbles. The solvent was evaporated for 2 days at TT in a fumehood followed by 2 days @ 750 mBar, 1 day @ 500 mBar and 2 days at full vacuum. From the resulting films, discs were cut with diameter of 10 mm and approximate thicknesses of 500 μm.
A sample was prepared by dissolving ˜10 mg of material in 1 ml of deuterated THF in a 10 ml glass vial. The sample was allowed sufficient time for complete dissolution. ^1H NMR spectra was recorded on a 300 MHz Bruker Avance 300, ARX 400 NMR instrument.
Stability of Latanoprost in formulations and compatibility with film casting procedure was evaluated by ^1H NMR.

For `CC(C)OC(=O)CCC/C=C\C[C@@H]1[C@@H](CC[C@@H](O)CCc2ccccc2)[C@H](O)C[C@@H]1O` [Latanoprost], the “Stability of Latanoprost (degradation of API) by 1H NMR” value is, setting by setting: (PEA III formulations with Latanoprost stored @ 4° C. for 3 months) “did not indicate any degradation”; (initial PEA III formulations with Latanoprost, after film casting) “did not indicate any degradation”.

Values taken from patent US20140105957A1, “BIS-(ALPHA-AMINO-DIOL-DIESTER) CONTAINING POLYESTERAMIDE FOR OPHTAMOLOGY” (DSM IP ASSETS B.V., priority 2011, published 2014).
